Results taken from patent US20250059395A1, “SURFACTANTS FOR INKS, PAINTS, AND ADHESIVES” (AdvanSix Resins & Chemicals LLC, priority 2023, published 2025).

Assay: Critical micelle concentration and surface tension by Wilhelmy plate method
Format: physicochemical
Conditions: comparison of Surfactant 9 and Comparative Surfactant
From the text: As surfactant concentration increases, surface tension decreases. Once the surface is completely overlaid with surfactant molecules, micelles begin to form. This point represents the CMC, as well as the minimum surface tension. Further addition of surfactant will not further affect the surface tension. CMC may therefore be measured by observing the change in surface tension as a function of surfactant concentration. One such method for measuring this value is the Wilhemy plate method. A Wilhelmy plate is usually a thin iridium-platinum plate attached to a balance by a wire and placed perpendicularly to the air-liquid interface. The balance is used to measure the force exerted on the plate by wetting. This value is then used to calculate the surface tension (Y) according to Equation 1: […]
Nuclear magnetic resonance (NMR) spectroscopy was performed on a Bruker 500 MHz spectrometer. The critical micelle concentration (CMC) was determined by the Wilhelmy plate method at 23° C. with a tensiometer (DCAT 11, DataPhysics Instruments GmbH) equipped with a Pt—Ir plate. Dynamic surface tension was determined with a bubble pressure tensiometer (Krüss BP100, Krüss GmbH), at 23° C. Contact angle was determined with the optical contact angle goniometer (OCA 15 Pro, DataPhysics GmbH) equipped with a digital camera.

| SMILES | surfactant properties (activity in words) |
| --- | --- |
| C[N+](C)(CCCCCC(=O)O)CCCCCC(=O)NCCC[Si](O[Si](C)(C)C)(O[Si](C)(C)C)O[Si](C)(C)C [Surfactant 9, N-(5-carboxypentyl)-6-((3-(1,1,1,5,5,5-hexamethyl-3-((trimethylsilyl)oxy)trisiloxan-3-yl)propyl)amino)-N,N-dimethyl-6-oxohexan-1-aminium bromide] | excellent activity |
| C[N+](C)(CCCCCC(=O)NCCC[Si](O[Si](C)(C)C)(O[Si](C)(C)C)O[Si](C)(C)C)CC(=O)O [Comparative Surfactant, N-(carboxymethyl)-6-((3-(1,1,1,5,5,5-hexamethyl-3-((trimethylsilyl)oxy)trisiloxan-3-yl)propyl)amino)-N,N-dimethyl-6-oxohexan-1-aminium bromide] | inferior surfactant properties |
